Patent EP0549857A1, “Antibacterial quinolone carboxylic acid derivatives” (KOREA RESEARCH INSTITUTE OF CHEMICAL TECHNOLOGY, priority 1991, dated 1993)
≈ marks a conversion by molar mass, not a printed value. Read-outs that look alike come from different tables or passages of the source.

Tests used:
Experiment in all cases: In vitro anti-bacterial activity test (MIC, two-fold agar dilution)
Type in all cases: cell-based
Escherichia coli 1507E = conditions: Mueller-Hinton agar, 10⁷ CFU/mℓ, 37°C, 18 hours
Escherichia coli DC 2 = conditions: 10⁷ CFU/mℓ, 37°C, 18 hours
[1] = system: Staphylococcus aureus SG 511; conditions: Staphylococcus aureus SG 511, Mueller-Hinton agar, 10⁷ CFU/mℓ, 37°C, 18 hours
[2] = system: Staphylococcus aureus 285; conditions: Staphylococcus aureus 285, Mueller-Hinton agar, 10⁷ CFU/mℓ, 37°C, 18 hours
[3] = system: Pseudomonas aeruginosa 1771; conditions: Pseudomonas aeruginosa 1771, Mueller-Hinton agar, 10⁷ CFU/mℓ, 37°C, 18 hours
[4] = system: Streptococcus pyogenes 77A; conditions: Streptococcus pyogenes 77A, Mueller-Hinton agar, 10⁷ CFU/mℓ, 37°C, 18 hours
[5] = system: Klebsiella aerogenes 1522E; conditions: Mueller-Hinton agar, 10⁷ CFU/mℓ, 37°C, 18 hours
Escherichia coli OTEM = conditions: Mueller-Hinton agar, 10⁷ CFU/mℓ, 37°C, 18 hours
Salmonella typhimurium = conditions: Mueller-Hinton agar, 10⁷ CFU/mℓ, 37°C, 18 hours
[6] = system: Streptococcus faecium MD 8b; conditions: Streptococcus faecium MD 8b, Mueller-Hinton agar, 10⁷ CFU/mℓ, 37°C, 18 hours
[7] = system: Enterobacter cloacae 1321E; conditions: Mueller-Hinton agar, 10⁷ CFU/mℓ, 37°C, 18 hours
[8] = system: Pseudomonas aeruginosa 9027; conditions: Pseudomonas aeruginosa 9027, Mueller-Hinton agar, 10⁷ CFU/mℓ, 37°C, 18 hours
[9] = system: Pseudomonas aeruginosa 1771M; conditions: 18 h
[10] = system: Klebsiella aerogenes 1082E; conditions: Mueller-Hinton agar, 10⁷ CFU/mℓ, 37°C, 18 hours
[11] = system: Pseudomonas aeruginosa 1592E; conditions: Mueller-Hinton agar, 10⁷ CFU/mℓ, 37°C, 18 hours
[12] = system: Staphylococcus aureus 503; conditions: Staphylococcus aureus 503, Mueller-Hinton agar, 10⁷ CFU/mℓ, 37°C, 18 hours
Escherichia coli O 55 = conditions: 10⁷ CFU/mℓ, 37°C, 18 hours
Enterobacter cloacae P99 = conditions: Mueller-Hinton agar, 10⁷ CFU/mℓ, 37°C, 18 hours
Escherichia coli DC 0 = conditions: 10⁷ CFU/mℓ, 37°C, 18 hours
[13] = system: Streptococcus pyogenes 308A; conditions: Mueller-Hinton agar, 10⁷ CFU/mℓ, 37°C, 18 hours
[14] = DC2, Mueller-Hinton agar, read-out: MIC
[15] = Salmonella enterica, read-out: MIC
[16] = Enterococcus faecium, MD8B, read-out: MIC
[17] = O55, Mueller-Hinton agar, read-out: MIC
[18] = DC0, Mueller-Hinton agar, read-out: MIC

| Compound | MIC (Escherichia coli 1507E; read-out: MIC) [µg/mL] | MIC (Escherichia coli DC 2; [14]) [µg/mL] | MIC ([1]; SG511, read-out: MIC) [µg/mL] | MIC ([2]; read-out: MIC) [µg/mL] | MIC ([3]; read-out: MIC) [µg/mL] | MIC ([4]; read-out: MIC) [µg/mL] | MIC ([5]; read-out: MIC) [µg/mL] | MIC (Escherichia coli OTEM; read-out: MIC) [µg/mL] | MIC (Salmonella typhimurium; [15]) [µg/mL] | MIC [6, 16] [µg/mL] | MIC ([7]; read-out: MIC) [µg/mL] | MIC ([8]; read-out: MIC) [µg/mL] | MIC [9] [µg/mL] | MIC ([10]; read-out: MIC) [µg/mL] | MIC ([11]; read-out: MIC) [µg/mL] | MIC ([12]; read-out: MIC) [µg/mL] | MIC (Escherichia coli O 55; [17]) [µg/mL] | MIC (Enterobacter cloacae P99; read-out: MIC) [µg/mL] | MIC (Escherichia coli DC 0; [18]) [µg/mL] | MIC ([13]; read-out: MIC) [µg/mL] | also measured |
| --- | --- | --- | --- | --- | --- | --- | --- | --- | --- | --- | --- | --- | --- | --- | --- | --- | --- | --- | --- | --- | --- |
| CNC1CCC2=C1CN(c1nc3c(cc1F)c(=O)c(C(=O)O)cn3C1CC1)C2 (stereo not shown) [Example 15, 7-[6-methylamino-3-azabicyclo[3,3,0]oct-1(5)ene-3-yl]-1-cyclopropyl-6-fluoro-1,4-dihydro-4-oxo-1,8-naphthyridine-3-carboxylic acid] | 0.195 (≈ 0.507 µM) | 0.391 (≈ 1.02 µM) | 0.098 (≈ 0.255 µM) | 0.195 (≈ 0.507 µM) | 3.12 (≈ 8.13 µM) | 0.195 (≈ 0.507 µM) | 0.195 (≈ 0.507 µM) | 0.098 (≈ 0.255 µM) | 0.195 (≈ 0.507 µM) | 0.195 (≈ 0.507 µM) | 0.049 (≈ 0.127 µM) | 3.12 (≈ 8.13 µM) | 1.56 (≈ 4.07 µM) | 0.025 (≈ 0.065 µM) | 3.12 (≈ 8.13 µM) | 0.098 (≈ 0.255 µM) | 0.049 (≈ 0.127 µM) | 0.049 (≈ 0.127 µM) | 1.56 (≈ 4.07 µM) | 0.781 (≈ 2.03 µM) |  |
| NC1CCCC2=C1CN(c1c(F)cc3c(=O)c(C(=O)O)cn(C4CC4)c3c1F)C2 (stereo not shown) [Example 9, 7-[6-amino-3-azabicyclo[4,3,0]non-1(5)ene-3-yl]-1-cyclopropyl-6,8-difluoro-1,4-dihydro-4-oxoquinoline-3-carboxylic acid] | 0.098 (≈ 0.244 µM) | 0.195 (≈ 0.486 µM) | 0.098 (≈ 0.244 µM) | 0.098 (≈ 0.244 µM) | 3.12 (≈ 7.78 µM) | 0.098 (≈ 0.244 µM) | 0.195 (≈ 0.486 µM) | 0.098 (≈ 0.244 µM) | 0.013 (≈ 0.0324 µM) | 0.098 (≈ 0.244 µM) |  | 3.12 (≈ 7.78 µM) | 0.781 (≈ 1.95 µM) | 0.195 (≈ 0.486 µM) | 3.12 (≈ 7.78 µM) | 0.098 (≈ 0.244 µM) | 0.049 (≈ 0.122 µM) | 0.049 (≈ 0.122 µM) | 0.781 (≈ 1.95 µM) | 0.391 (≈ 0.974 µM) |  |
| CNC1CCC2=C1CN(c1c(F)cc3c(=O)c(C(=O)O)cn4c3c1OC[C@@H]4C)C2 (stereo partly drawn) [Example 17, 9-fluoro-10-[6-methylamino-3-azabicyclo [3,3,0]oct-1(5)ene-3-yl]-3-(S)-methyl-7-oxo-2,3-dihydro-7H-pyrido[1,2,3-de]-1,4-benzoxazine-6-carboxylic acid] | 0.781 (≈ 1.96 µM) | 0.391 (≈ 0.979 µM) | 0.391 (≈ 0.979 µM) | 0.781 (≈ 1.96 µM) | 12.5 (≈ 31.3 µM) | 0.195 (≈ 0.488 µM) | 1.56 (≈ 3.91 µM) | 0.391 (≈ 0.979 µM) | 0.391 (≈ 0.979 µM) | 0.391 (≈ 0.979 µM) | 0.391 (≈ 0.979 µM) | 12.5 (≈ 31.3 µM) | 3.12 (≈ 7.82 µM) | 0.195 (≈ 0.488 µM) | 6.25 (≈ 15.6 µM) | 0.781 (≈ 1.96 µM) | 0.195 (≈ 0.488 µM) | 0.781 (≈ 1.96 µM) | 3.12 (≈ 7.82 µM) | 3.12 (≈ 7.82 µM) |  |
| CNC1CCC2=C1CN(c1c(F)c(N)c3c(=O)c(C(=O)O)cn(C4CC4)c3c1F)C2 (stereo not shown) [Example 11, 7-[6-methylamino-3-azabicyclo[3,3,0]oct-1(5)ene-3-yl]-5-amino-1-cyclopropyl-6,8-difluoro-1,4-dihydro-4-oxoquinoline-3-carboxylic acid] | 0.098 (≈ 0.235 µM) | 0.049 (≈ 0.118 µM) | 0.195 (≈ 0.468 µM) | 0.049 (≈ 0.118 µM) | 3.12 (≈ 7.5 µM) | 0.195 (≈ 0.468 µM) | 0.195 (≈ 0.468 µM) | 0.049 (≈ 0.118 µM) | 0.098 (≈ 0.235 µM) | 0.195 (≈ 0.468 µM) | 0.049 (≈ 0.118 µM) | 3.12 (≈ 7.5 µM) | 1.56 (≈ 3.75 µM) | 0.007 (≈ 0.0168 µM) | 3.12 (≈ 7.5 µM) | 0.049 (≈ 0.118 µM) | 0.025 (≈ 0.06 µM) | 0.195 (≈ 0.468 µM) | 1.56 (≈ 3.75 µM) | 0.391 (≈ 0.939 µM) |  |
| 7-[6-amino-3-azabicyclo[3,3,0]oct-1(5) ene-3-yl]-5-amino-1-cyclopropyl-6,8-difluoro-1,4-dihydro-4-oxoquinoline-3-carboxylic acid [Example 10] |  |  |  |  |  |  |  |  |  |  |  |  |  |  |  |  |  |  |  |  | MIC (Escherichia coli 1507E): 0.049 µg/mL; MIC (Escherichia coli DC 2; Mueller-Hinton agar): 0.049 µg/mL; MIC [1]: 0.025 µg/mL; MIC [2]: 0.049 µg/mL; MIC [3]: 1.563 µg/mL; MIC [4]: 0.049 µg/mL; MIC [5]: 0.098 µg/mL; MIC (Escherichia coli OTEM): 0.049 µg/mL; MIC (Salmonella typhimurium): 0.025 µg/mL; MIC [6]: 0.195 µg/mL; MIC [7]: 0.025 µg/mL; MIC [8]: 1.563 µg/mL; MIC [10]: 0.007 µg/mL; MIC [11]: 1.563 µg/mL; MIC [12]: 0.025 µg/mL; MIC (Escherichia coli O 55; Mueller-Hinton agar): 0.025 µg/mL; MIC (Enterobacter cloacae P99): 0.025 µg/mL; MIC (Escherichia coli DC 0; Mueller-Hinton agar): 0.781 µg/mL; MIC [13]: 0.195 µg/mL |
| CNC1CCC2=C1CN(c1c(F)cc3c(=O)c(C(=O)O)cn(C4CC4)c3c1Cl)C2 (stereo not shown) [Example 4, 7-[6-methylamino-3-azabicyclo[3,3,0]oct-1(5)ene-3-yl]-8-chloro-1-cyclopropyl-6-fluoro-1,4-dihydro-4-oxoquinoline-3-carboxylic acid] | 0.098 (≈ 0.235 µM) | 0.025 (≈ 0.0598 µM) | 0.025 (≈ 0.0598 µM) | 0.049 (≈ 0.117 µM) | 3.12 (≈ 7.48 µM) | 0.025 (≈ 0.0598 µM) | 0.195 (≈ 0.467 µM) | 0.098 (≈ 0.235 µM) | 0.049 (≈ 0.117 µM) | 0.049 (≈ 0.117 µM) | 0.098 (≈ 0.235 µM) | 3.12 (≈ 7.48 µM) | 0.781 (≈ 1.87 µM) | < 0.002 | 3.12 (≈ 7.48 µM) | 0.025 (≈ 0.0598 µM) | 0.025 (≈ 0.0598 µM) | 0.098 (≈ 0.235 µM) | 0.781 (≈ 1.87 µM) | 0.195 (≈ 0.467 µM) |  |
